Test results from US12486489B2, “Culture medium for testing drug resistance of H.pylori as well as preparation method and use thereof” (priority 2022, dated 2025).
Like-named read-outs stand apart in the source and are kept apart here.

Assays:
[1] = test system: clinical H. pylori strain; test: Drug resistance testing of clinical specimens on characteristic culture medium (discoloration after 36 hours); type: cell-based, Helicobacter pylori
Procedure: (§1) The characteristic culture media (A, B, C, D, E) are cultivated at a constant temperature of 37° C. for 36 hours in a three gas incubator. The characteristic culture media are removed and placed in a natural environment for 30 minutes to observe whether there are discolorations at the point of the culture medium where the specimen is dropped in. […] Another 100 μL of the specimen is taken and coated on Columbia solid culture medium and cultivated in a three gas incubator at a constant temperature of 37° C. for 3 days to 5 days. The number of colonies on the plate is counted to determine the initial inoculation amount. The micro dilution method is adopted to test the MIC of clinical specimen H. pylori, the test is meaningful only when there is no bacterial growth in the negative control well without bacteria and there is bacterial growth in the positive well with bacteria but without antibiotics.
(1) Transfer liquid preparation: after sterilization and cooling, BHI culture medium is added with 10% calf serum, followed by 30% glycerol to prepare H. pylori preservation solution. On this basis, 1% H. pylori selective additive is added to prepare the transfer liquid. 1 mL of transfer solution is taken into a sterile EP tube, and 6-8 sterilized small steel balls are poured into the EP tube for the subsequent use.
(3) Specimen acquisition: a biopsy tissue group is obtained from the gastric antrum and a small curvature side of the gastric body through a gastroscopy biopsy passage and placed into an EP tube (strictly sterile operation). The biopsy tissue is placed on the ice surface and transferred as soon as possible (within 2 hours) to complete the subsequent steps.
(4) Preparation of bacterial solution containing tissue: the EP tube containing tissue is placed in a homogenizer at 300 hz and crushed for 5 minutes, transferred to another EP, centrifuged at 12000 rpm for 2 minutes, the supernatant is discarded, BHI is resuspended to 200 μL, and a bacterial suspension is prepared for the subsequent use.
(5) Inoculation of bacterial solution: 10 μL of bacterial solution is taken and added dropwise to the characteristic culture medium (5 pieces in total). The characteristic culture medium is removed after cultivating in a three gas incubator at 37° C. for 36 hours, and the results are determined after leaving for 30 minutes; another 100 μL is taken and coated onto Colombian culture medium for the traditional bacterial culture.

H. pylori [2] = details: bacterial count 1×10^6 CFU/mL; cited from earlier work
H. pylori [3] = test: MIC of laboratory H. pylori strains by micro dilution method; type: cell-based; details: Helicobacter pylori
Procedure: (3) Preparation of bacterial solution: H. pylori grown in logarithmic phase on a solid plate is taken, BHI culture medium is used to prepare a bacterial suspension. The concentration of the bacterial solution is adjusted to 1×10^8 CFU/mL (OD600 is 0.3), diluted 10 times, 100 times, and 1000 times to implement a final concentration of […], for the subsequent use.
(4) Inoculation of bacterial solution: 10 μL of the above bacterial solution for the subsequent use is taken and added to wells the 1-10-th and the 12-th well (bacterial working concentration is 1×10^6 CFU/mL), the 11-th well serves as a non-bacterial control and only sterile water is added. The wells are cultivated for 72 hours to determine the results.

H. pylori [4] = test: Drug resistance testing of laboratory strains on characteristic culture medium (discoloration after 36 hours); type: cell-based, Helicobacter pylori
Procedure: as §1, with “antibiotics. […] The results are recorded and whether the micro dilution method and characteristic culture medium are consistent with each other in evaluating the drug resistance of clinical H. pylori strains is compared. […]” for “antibiotics.”
(2) Inoculation of bacterial solution: 10 μL bacterial solution is taken and added dropwise onto a characteristic culture medium with 5 pieces (ABCDE) in total.
(3) Culture: all plates are moved to a three gas incubator and cultivated at 37° C. for 36 hours. After being taken out and placed in a natural environment for 30 minutes, whether the bacteria have resistance is determined based on the discoloration of the characteristic culture medium.

What does the source list for `Cc1ncc([N+](=O)[O-])n1CCO` [Metronidazole, metronidazole]?
drug resistance determined on characteristic culture medium ([1]; clinical H. pylori strain FY-31): sensitive; drug resistance determined on characteristic culture medium ([1]; clinical H. pylori strain FY-43): sensitive; drug resistance determined on characteristic culture medium ([1]; clinical H. pylori strain FY-47): resistant; drug resistance determined on characteristic culture medium ([1]; clinical H. pylori strain FY-52): sensitive; resistance breakpoints of H. pylori according to CLSI guidelines (H. pylori [2]): 8 µg/mL; MIC (H. pylori [3]; read-out: MICs, standard sensitive strains G27 and 26695, bacterial count 1×10^6 CFU/mL): 0.25 µg/mL; MIC (H. pylori [3]; read-out: minimum inhibitory concentration (MIC), strain 159, bacterial count 10^6 CFU/mL (first line of the strain)): 4 µg/mL; MIC (H. pylori [3]; read-out: minimum inhibitory concentration (MIC), strain 159, bacterial count 10^6 CFU/mL (second line of the strain)): 2 µg/mL; MIC (H. pylori [3]; read-out: minimum inhibitory concentration (MIC), strain 161, bacterial count 10^4 CFU/mL): 1 µg/mL; MIC (H. pylori [3]; read-out: minimum inhibitory concentration (MIC), strain 161, bacterial count 10^6 CFU/mL (first line of the strain)): 4 µg/mL; MIC (H. pylori [3]; read-out: minimum inhibitory concentration (MIC), strain 161, bacterial count 10^6 CFU/mL (second line of the strain)): 2 µg/mL; MIC (H. pylori [3]; read-out: minimum inhibitory concentration (MIC), strain 162, bacterial count 10^6 CFU/mL (first line of the strain)): 2 µg/mL; MIC (H. pylori [3]; read-out: minimum inhibitory concentration (MIC), strain 162, bacterial count 10^6 CFU/mL (second line of the strain)): 1 µg/mL; MIC (H. pylori [3]; read-out: minimum inhibitory concentration (MIC), strain 163, bacterial count 10^4 CFU/mL): 2 µg/mL; MIC (H. pylori [3]; read-out: minimum inhibitory concentration (MIC), strain 163, bacterial count 10^6 CFU/mL (first line of the strain)): 16 µg/mL; MIC (H. pylori [3]; read-out: minimum inhibitory concentration (MIC), strain 163, bacterial count 10^6 CFU/mL (second line of the strain)): 4 µg/mL; MIC (H. pylori [3]; read-out: minimum inhibitory concentration (MIC), strain 286, bacterial count 10^4 CFU/mL): 4 µg/mL; MIC (H. pylori [3]; read-out: minimum inhibitory concentration (MIC), strain 286, bacterial count 10^6 CFU/mL (first line of the strain)): 32 µg/mL; MIC (H. pylori [3]; read-out: minimum inhibitory concentration (MIC), strain 286, bacterial count 10^6 CFU/mL (second line of the strain)): 16 µg/mL; MIC (H. pylori [3]; read-out: minimum inhibitory concentration (MIC), strain 287, bacterial count 10^4 CFU/mL): 8 µg/mL; MIC (H. pylori [3]; read-out: minimum inhibitory concentration (MIC), strain 287, bacterial count 10^6 CFU/mL (first line of the strain)): 32 µg/mL; MIC (H. pylori [3]; read-out: minimum inhibitory concentration (MIC), strain 287, bacterial count 10^6 CFU/mL (second line of the strain)): 16 µg/mL; MIC (H. pylori [3]; read-out: minimum inhibitory concentration (MIC), strain 289, bacterial count 10^4 CFU/mL): 8 µg/mL; MIC (H. pylori [3]; read-out: minimum inhibitory concentration (MIC), strain 289, bacterial count 10^6 CFU/mL (first line of the strain)): 32 µg/mL; MIC (H. pylori [3]; read-out: minimum inhibitory concentration (MIC), strain 289, bacterial count 10^6 CFU/mL (second line of the strain)): 16 µg/mL; MIC (H. pylori [3]; read-out: minimum inhibitory concentration (MIC), strain 290, bacterial count 10^4 CFU/mL): 4 µg/mL; MIC (H. pylori [3]; read-out: minimum inhibitory concentration (MIC), strain 290, bacterial count 10^6 CFU/mL (first line of the strain)): 32 µg/mL; MIC (H. pylori [3]; read-out: minimum inhibitory concentration (MIC), strain 290, bacterial count 10^6 CFU/mL (second line of the strain)): 16 µg/mL; MIC (H. pylori [3]; read-out: minimum inhibitory concentration (MIC), strain 26695, bacterial count 10^6 CFU/mL (second line of the strain)): 0.25 µg/mL; MIC (H. pylori [3]; resistant strains 159, 161, 162, 163, 286, 287, 289, and 290, bacterial count 1×10^6 CFU/mL, read-out: MICs): 1 to 16 µg/mL; MIC (H. pylori [3]; strain G27, bacterial count 10^4 CFU/mL, read-out: minimum inhibitory concentration (MIC)): 0.125 µg/mL; MIC (H. pylori [3]; strain G27, bacterial count 10^6 CFU/mL (first line of the strain), read-out: minimum inhibitory concentration (MIC)): 0.5 µg/mL; MIC (H. pylori [3]; strain G27, bacterial count 10^6 CFU/mL (second line of the strain), read-out: minimum inhibitory concentration (MIC)): 0.5 µg/mL; drug resistance determined by discoloration of characteristic culture medium (H. pylori [4]; strain 159, 1×10^6 CFU/mL): developed resistance; drug resistance determined by discoloration of characteristic culture medium (H. pylori [4]; strain 286, 1×10^6 CFU/mL): have developed resistance; drug resistance determined by discoloration of characteristic culture medium (H. pylori [4]; strain 287, 1×10^6 CFU/mL): have developed resistance; drug resistance determined by discoloration of characteristic culture medium (H. pylori [4]; strain 289, 1×10^6 CFU/mL): have developed resistance; drug resistance determined by discoloration of characteristic culture medium (H. pylori [4]; strain G27, 1×10^6 CFU/mL): does not develop resistance
